# Measured values taken from PubChem BioAssay AID488994 (Sanford-Burnham Center for Chemical Genomics, 2010).
# Calls of active or inactive are those of the source.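 The calls were made as follows: active = IC50 below 20 µM in the dose response test; inactive = the rest.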
# Target: Type-1 angiotensin II receptor (Homo sapiens) (UniProt P30556)
# Test: AGTR1 antagonism selectivity check – cell-based, CHO-K1 PathHunter, luminescence, set 2, selectivity assay for APJ antagonist project, SAR follow-up (AID 488994)
# Conditions: CHO-K1 AGTR1 PathHunter beta-arrestin
# Sequence of Type-1 angiotensin II receptor (Homo sapiens) (P30556 whole entry, looked up): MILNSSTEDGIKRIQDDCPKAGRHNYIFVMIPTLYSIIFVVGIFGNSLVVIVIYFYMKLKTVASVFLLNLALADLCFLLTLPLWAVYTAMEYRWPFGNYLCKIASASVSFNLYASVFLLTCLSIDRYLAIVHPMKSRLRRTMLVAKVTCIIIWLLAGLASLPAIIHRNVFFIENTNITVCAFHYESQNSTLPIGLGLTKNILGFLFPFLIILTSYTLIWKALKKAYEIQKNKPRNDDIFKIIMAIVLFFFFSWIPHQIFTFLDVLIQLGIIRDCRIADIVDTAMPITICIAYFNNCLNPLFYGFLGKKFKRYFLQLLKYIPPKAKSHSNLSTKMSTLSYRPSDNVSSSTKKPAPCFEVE
row,IC50,Compound
1,> 79 µM (inactive),Cc1ccnc(SCc2cc(=O)c(OC(=O)C(C)(C)C)co2)n1
2,> 79 µM (inactive),COc1cc(CSc2nc(C)cc(C)n2)ccc1OC(=O)c1cccnc1
3,> 79 µM (inactive),Cc1ccnc(SCc2cc(=O)c(OC(=O)c3ccc([N+](=O)[O-])o3)co2)n1
4,> 79 µM (inactive),COc1cc(CSc2nc(C)cc(C)n2)ccc1OC(=O)c1ccccc1
5,> 79 µM (inactive),Cc1ccnc(SCc2cc(=O)c(OC(=O)c3ccno3)co2)n1
6,> 79 µM (inactive),COc1cc(CSc2nc(C)cc(C)n2)ccc1OC(=O)c1ccc([N+](=O)[O-])cc1
7,> 79 µM (inactive),Cc1ccnc(SCc2cc(=O)c(OCc3ccc(Cl)c([N+](=O)[O-])c3)co2)n1
8,> 79 µM (inactive),O=C(Nc1ccc(CSc2ncccn2)cc1)c1ccccc1
9,> 79 µM (inactive),Cc1ccnc(SCc2cc(=O)c(OC(=O)C(C)C)co2)n1
10,> 79 µM (inactive),CC(=O)Oc1coc(CSc2nccc(C)n2)cc1=O
